“And” between values parts separate entries of the source, which are not always exact repeats. Equal values may be shown once. Read-outs that look alike come from different tables or passages of the source.
Key:
LCE [1] = assay: Influence of enzyme inhibitors or activators on LCE activity, kidney membrane fraction; assay type: biochemical, Balb/c
Procedure: Das Pipettierschema ist in der folgenden Tabelle angegeben. Tabelle
Zur Untersuchung der enzymatischen Spaltung in Abhängigkeit von der Substratkonzentration wurde eine Substratstammlösung von 0.98 nmol [^14C]-AZT-DMDOPE und 0.7 nmol AZT-DMDOPE/80 µl Aqua bidest. im LCE-Assay angesetzt. Die verschiedenen Substratkonzentrationen im LCE-Assay wurden durch kontinuierliche Verdopplung bzw. Halbierung des Volumens an Substratlösung eingestellt. Die Ansätze wurden in Glasröhrchen (5 ml) vorgelegt und durch Zugabe der Substratlösung gestartet. Die Inkubation wurde bei 37 °C im Wasserbad unter leichtem Schütteln durchgeführt.
Die Reaktionsansätze des LCE-Assays wurden nach entsprechender Inkubationszeit dem Wasserbad entnommen, und die Reaktion durch Zugabe von 750 µl 2-Propanol gestoppt. Nach gründlicher Durchmischung wurden die Ansätze anschließend mit 700 µl auf Raumtemperatur erwärmtem n-Heptan versetzt. Die Ansätze wurden erneut für 30 sec gut gemischt und zur Beschleunigung der Phasentrennung in der Minifuge T bei 3200 rpm für 15 min bei Raumtemperatur zentrifugiert. Anschließend wurden 500 µl der oberen Phase (n-Heptan) entnommen und in neue Glasröhrchen (5 ml) mit 10 mg Kieselgel 60 H und 200 µl n-Heptan überführt. Die Ansätze wurden für 30 sec gut durchmischt und zur Sedimentation des Kieselgels für 10 min unter oben genannten Bedingungen zentrifugiert. Vom Überstand wurden anschließend 500 µl entnommen und mit 3 ml Szintillationsflüssigkeit versetzt. Die Messung der Radioaktivität erfolgte für 4 min im Flüssigkeits-Szintillations-Analysator. Zur Bestimmung des Absolutwertes an Radioaktivität wurden 200 µl der Substratlösung mit 3 ml Szintillationsflüssigkeit versetzt und unter gleichen Bedingungen im Flüssigkeits-Szintillations-Analysator gemessen.

LCE [2] = assay: LCE assay: dependence of AZT-DMDOPE cleavage on EGTA and divalent metal cations; assay type: biochemical, human; conditions: for Spezifische Aktivität / Inhibition / DMDOP: Effektor 2 mM, 2 h 37 °C, n = 3; for Spezifische Aktivität / DMDOP: Membranfraktionen stimulierter humaner PBL 0.068 mg/Ansatz; for Inhibition: relative to EGTA, Membranfraktionen stimulierter humaner PBL; for Inhibierung der LCE-Aktivität (in words): divalent metal cations, 2 mM in Example 9
Procedure: Die Abhängigkeit der enzymatischen Spaitung von AZT-DMDOPE durch das LCE von zweiwertigen Metallkationen wurde mit Membranfraktionen stimulierter humaner PBL als Enzymquelle untersucht.
Die zweiwertigen Metallkationen wurden in einer Konzentration von 2 mM im LCE-Assay eingesetzt. Die Proteinkonzentration wurde mit 0.068 mg/Ansatz festgelegt.
Parallel wurde ein Ansatz mit EGTA mitgeführt. EGTA ist ein spezifischer Komplexbildner für Ca^2+ das essentiell für die Aktivität der Phospholipase C ist. Nach einer Inkubationszeit von 2 h bei 37 °C wurde der Umsatz der Muttersubstanz gemessen und die spezifische Aktivität des LCE bestimmt (folgende Tabelle).

LCE [3] = assay: Substrate cleavage by LCE; assay type: biochemical; conditions: cleavage to drug monophosphate and DMDOP
Excerpt: Das Enzym wird vorzugsweise aus humanen peripheren Blutleukozyten, die zuvor durch PHA oder andere Stimulantien (z.B. Cytokine, etc.) aktiviert wurden, oder aus murinen Nierenzellen isoliert. Aus vorläufigen Untersuchungen ergibt sich ein Molekulargewicht von etwa 120.000 - 160.000, bestimmt nach der SDS-PAGE-Methode. Zellen, die dieses Enzym enthalten, können auf einfache Weise dadurch identifiziert werden, indem sie unter geeigneten Testbedingungen mit einer Lösung von AZT-DMDOPE oder FLT-DMDOPE versetzt werden und die Spaltprodukte AZT-monophosphat bzw. FLT-monophosphat oder DMDOP nachgewiesen werden, beispielsweise durch dünnschichtchromatographische Methoden oder im Fall von radioaktiv markierten Proben durch szintillatographische Verfahren (siehe Beispiele 4 - 7). Im Gegensatz zu den biochemisch verwandten Phospholipasen C oder -D wird das LCE nicht durch bekannte Inhibitoren von Phospholipase C oder -D gehemmt oder durch Aktivatoren von Phospholipase C oder -D aktiviert. Im Gegensatz zu Phospholipase C wird das Enzym durch die Substanz D 609 (Tricyclodecan-9-yl-xanthogenat; C11H15OS2 K) aktiviert, während D 609 Phospholipase C inhibiert.

stimulierten humanen PBL [4] = assay: Intracellular concentrations of AZT and AZT nucleotides (radioimmunoassay) in stimulated human PBL; conditions: for Konzentrationen an AZT und AZT-Nukleotiden nach Abfall bei zunehmender Inkubationszeit: up to 24 h
Excerpt: Zur Bestimmung der intrazellulären Konzentrationen an AZT und/oder AZT-Nukleotiden nach Inkubation mit AZT-DMDOPE bzw. AZT wurden humane PBL aus "Buffy coat" isoliert.
Hierfür wurde "Buffy-coat" von gesunden Spendern gemischt und durch Zentrifugation in einem isotonischen Medium mit einer Dichte von 1.077 g/ml fraktioniert. Da mononukleare Blutzellen (Monozyten und Lymphozyten) eine geringere Dichte als Erythrozyten und polymorphkernige Granulozyten haben, bilden sie einen Ring an der Grenze zwischen Trennmedium und Probe und können mit Hilfe einer Pipette abgenommen werden. Erythrozyten und polymorphkernige Granulozyten sedimentieren aufgrund ihrer höheren Dichte durch das Medium und lassen sich somit von PBL separieren. Zur Stimulation der Zellproliferation wurde Phytohämaglutinin A (Mukoprotein) (PHA-M), der mitogene Lektinextrakt aus der roten Feuerbohne (Phaseolus vulgaris), eingesetzt. Phytohämagglutinin ist eine Familie von 5 Isolektinen, die als Tetramere vorliegen. Die Untereinheiten bestehen aus einem lymphozytenreaktiven Typ-L und einem erythrozytenreaktiven Typ-E. Typ-L hat eine hohe Affinität zu Lymphozytenoberflächenrezeptoren und ist somit verantwortlich für die mitogenen Eigenschaften. Die Stimulation der Lymphozyten wurde in KPMI 1640 Komplettmedium III für 72 h bei 37 °C und 5 % CO2 durchgeführt. Nach Beendigung der Stimulation wurden zur Erhöhung der Zellzahl die Zellen für weitere 24 h in RPMI 1640 Komplettmedium IV kultiviert.
Zur Bestimmung der intrazellulären Konzentrationen an AZT und AZT-Nukleotiden wurden die Zellen in RPMI 1640 Komplettmedium II mit einer Dichte von 1 x 10^6 Zellen/ml in Gewebekulturflaschen (50 ml/25 cm^2) überführt, und in Anwesenheit von 0.03 bzw. 0.3 µg AZT/ml (Charge 15) und 1 bzw. 10 µg AZT-DMDOPE/ml für 1 - 24 h inkubiert.
Die Kulturen wurden anschließend für 1, 3, 6 und 24 h bei 37 °C und 5 % CO2 inkubiert. AZT und seine Nukleotide wurden anschließend mit 60 % Methanol extrahiert. Die extrahierten Nukleotide wurden mit alkalischer Phosphatase quantitativ zu AZT dephosphoryliert, da nur AZT, nicht jedoch die entsprechenden Nukleotide mit Hilfe eines Radioimmuno-Assays detektiert werden kann.
Die Konzentrationen an intrazellulärem AZT, die mit Hilfe des Radioimmuno-Assays bestimmt wurden, setzten sich dementsprechend aus der des AZT und den der AZT-Nukleotide zusammen. Eine separate Quantifizierung der Konzentrationen an AZT-MP, AZT-DP und AZT-TP wurde nicht durchgeführt.
Diese Experimente wurden an stimulierten humanen PBL durchgeführt.
Hierfür wurden Zellsuspensionen mit einer Dichte von 10^6 Zellen/ml mit 1 bzw. 10 µg AZT-DMDOPE/ml für 6 bzw. 24 h bei 37 °C und 5 % CO2 inkubiert.
Zur quantitativen Bestimmung von AZT wurde ein kommerzieller ^125J-AZT RIA Test-Kit verwendet. Puffer und Lösungen wurden gemäß den Angaben des Herstellers angesetzt und im Test-Kit eingesetzt. Die Reaktionsansätze wurden nach untenstehendem Schema (Tab. ) pipettiert, vorsichtig gemischt und für 2 h bei Raumtemperatur inkubiert. Anschließend wurden zur Präzipitation des Komplexes aus ^125J-AZT und des AZT-Antikörpers (aus Kaninchen) 500 µl des Ziege-Anti-Kaninchen-Antikörpers hinzugefügt. Die Ansätze wurden gemischt und erneut bei Raumtemperatur für 30 min inkubiert.

[5] = biological target: virale reverse Transkriptase (RT) (Human immunodeficiency virus type 1 group M subtype B, UniProt P04585); conditions: intracellular AZT in non-phosphorylated form; cited from earlier work
P3X63Ag8.653-Zellen = assay: Intracellular concentrations of AZT and AZT nucleotides (radioimmunoassay) in thymidine kinase deficient cells; assay type: in vitro ADME; conditions: after 48 h
Excerpt: Die Bestimmung der intrazellulären Konzentrationen an AZT und AZT-Nukleotiden in Thymidikinasedefizienten Zellen sollte weitere Erkenntnisse über die intrazelluläre Spaltung der Testsubstanz AZT-DMDOPE liefern. Intrazelluläres AZT kann in diesen Zellen aufgrund eines Mangels an Thymidin-Kinase (TK) nicht in ATZ-MP und somit in das therapeutisch wirksame AZT-TP überführt werden. Die Bestimmung der intrazellulären Konzentrationen an AZT und AZT-Nukleotiden nach Inkubation mit AZT-DMDOPE könnte somit einen weiteren Hinweis auf die Spaltung der Teststubstanz geben.
Hierfür wurden in Gewebekulturschalen (60 x 15 mm) 1 x 10^7 Zellen in RPMI 1640 Komplettmedium I mit 0.03 bzw. 0.3 µg AZT/ml und 1 bzw. 10 µg AZT-DMDOPE/ml über 6, 24 und 48 h inkubiert. Nach Extraktion von AZT und der AZT-Nukleotide und einer Behandlung mit alkalischer Phosphatase wurde die Konzentration an AZT mit Hilfe des Radioimmuno-Assays bestimmt.

stimulierten humanen PBL [6] = assay: Intracellular decay kinetics of AZT and AZT nucleotides after removal of the incubation solution; assay type: in vitro ADME, human; conditions: 24 h preincubation with 0.3 µg AZT/ml, reached 6 h after removal
Procedure: Stimulierte humane PBL wurden für 24 h mit 0.3 µg AZT/ml bzw. 10 µg AZT-DMDOPE/ml inkubiert. Anschließend wurden 1 x 10^7 Zellen in Gewebekulturflaschen (50 ml/25 cm^2) mit RPMI 1640 Komplettmedium I überführt. Nach 1, 3, 6, 24 und 48 h wurde AZT und die AZT-Nukleotide aus der zellulären Matrix extrahiert. Nach einer Behandlung mit alkalischer Phosphatase wurde mit Hilfe des Radioimmuno-Assays die Konzentration an AZT bestimmt.

[7] = test system: nichtstimulierten humanen PBL; assay: Intracellular concentrations of AZT and AZT nucleotides (radioimmunoassay) in non-stimulated human PBL; assay type: in vitro ADME
Excerpt: AZT wurden humane PBL aus "Buffy coat" isoliert.

[8] = LCE Membranfraktion Niere (Balb/c)

COC[C@H]1OC(=O)c2coc3c2[C@@]1(C)C1=C(C3=O)[C@@H]2CCC(=O)[C@@]2(C)C[C@H]1OC(C)=O [Wortmannin]
Einfluß auf LCE-Aktivität (LCE [1]): keine

Nc1ncnc2c1ncn2C1CCCO1 (stereo not drawn) [SQ 22536]
Einfluß auf LCE-Aktivität (LCE [1]; [8]): keine

ZnCl2
Spezifische Aktivität (LCE [2]): 0 pmol/mg/min
Inhibition (LCE [2]): 100.0%
Inhibierung der LCE-Aktivität (in words) (LCE [2]): totalen Hemmung
Inhibierung der LCE-Aktivität (in words) (LCE [2]; listed as Zn^2+): Inhibierung

CaCl2
DMDOP (LCE [2]): 50.50 ± 2.13 pmol
Spezifische Aktivität (LCE [2]): 6.19 ± 0.26 pmol/mg/min
Inhibition (LCE [2]): 41.0 ± 0.25% and 41.0 ± 2.5%
Inhibierung der LCE-Aktivität (in words) (LCE [2]): Inhibierung

Nc1nc2c(ncn2C2OC(COP(=O)(O)OP(O)(=S)OP(=O)(O)O)C(O)C2O)c(=O)[nH]1 (stereo not drawn) [GTP-β-S]
Einfluß auf LCE-Aktivität (LCE [1]; [8]): keine

O=[N+]([O-])c1cccc2cn[nH]c12 [7-Nitroindazol]
Einfluß auf LCE-Aktivität (LCE [1]; [8]): keine

CC(=O)Oc1ccccc1C(=O)O [Acetylsalicylsäur e]
Einfluß auf LCE-Aktivität (LCE [1]; [8]): keine

O=C(NCCCCCCNC(=O)ON=C1CCCCC1)ON=C1CCCCC1 [RHC-80267]
Einfluß auf LCE-Aktivität (LCE [1]; [8]): keine

CCCCCCCCCCCCSCC(COP(=O)(O)OC[C@H]1O[C@@H](n2cc(C)c(=O)[nH]c2=O)C[C@@H]1F)OCCCCCCCCCC (stereo partly drawn) [FLT-DMDOPE, (3'-Desoxy-3'-fluorthymidin)-5'-phosphorsäure-(3-dodecylmercapto-2-decyloxy)-propylester]
Spaltung durch LCE (LCE [3]): gespalten

CCCCCCCCCCCCSCC(COP(=O)(O)OC[C@H]1O[C@@H](n2cc(F)c(=O)[nH]c2=O)[C@H](O)[C@@H]1O)OCCCCCCCCCC (stereo partly drawn) [5-FU-DMDOPE, (5-Fluoruridin)-5'-phosphorsäure-(3-dodecylmercapto-2-decyloxy)-propylester]
Spaltung durch LCE (LCE [3]): gespalten

Neomycin
Einfluß auf LCE-Aktivität (LCE [1]; [8]): keine

Cc1cn([C@H]2C[C@H](N=[N+]=[N-])[C@@H](CO)O2)c(=O)[nH]c1=O [AZT, 3'-Desoxy-3'-azidothymidin, reference compound]
maximale Konzentrationen an AZT und AZT-Nukleotiden (stimulierten humanen PBL [4]; incubation with 0.03 µg AZT/ml, reached after 6 h): 2.90 ng/10^6 Zellen
Konzentrationen an AZT und AZT-Nukleotiden nach Abfall bei zunehmender Inkubationszeit (stimulierten humanen PBL [4]; incubation with 0.03 µg AZT/ml): 2.32 ng/10^6 Zellen
maximale Konzentrationen an AZT und AZT-Nukleotiden (stimulierten humanen PBL [4]; incubation with 0.3 µg AZT/ml, reached after 3 h): 30.97 ng/10^6 Zellen
Konzentrationen an AZT und AZT-Nukleotiden nach Abfall bei zunehmender Inkubationszeit (stimulierten humanen PBL [4]; incubation with 0.3 µg AZT/ml): 19.88 ng/10^6 Zellen
inhibitorische Wirkung auf die virale reverse Transkriptase (RT) [5]: keine inhibitorische Wirkung
maximale intrazelluläre Konzentrationen an AZT und AZT-Nukleotiden (P3X63Ag8.653-Zellen; 0.03 µg AZT/ml): 0.03 ng/10^6 Zellen
maximale intrazelluläre Konzentrationen an AZT und AZT-Nukleotiden (P3X63Ag8.653-Zellen; 0.3 µg AZT/ml): 0.31 ng/10^6 Zellen
konstanter Wert der intrazellulären Konzentrationen an AZT und AZT-Nukleotiden (stimulierten humanen PBL [6]): 0.40 ng/10^6 Zellen
intrazelluläre Konzentrationen an AZT und AZT-Nukleotiden ([7]; 0.03 µg AZT/ml): 0.10 ng/10^6 Zellen
intrazelluläre Konzentrationen an AZT und AZT-Nukleotiden ([7]; 0.3 µg AZT/ml): 0.47 ng/10^6 Zellen

O=C(O)CN(CCOCCOCCN(CC(=O)O)CC(=O)O)CC(=O)O [EGTA]
DMDOP (LCE [2]): 84.96 ± 11.18 pmol
Spezifische Aktivität (LCE [2]): 10.41 ± 1.37 pmol/mg/min
Inhibition (LCE [2]): ≡ 0%

MgCl2
DMDOP (LCE [2]): 84.36 ± 17.02 pmol
Spezifische Aktivität (LCE [2]): 10.34 ± 2.08 pmol/mg/min
Inhibition (LCE [2]): 0%
Inhibierung der LCE-Aktivität (in words) (LCE [2]): keine Inhibierung

[Cl][Mn][Cl] [MnCl2]
DMDOP (LCE [2]): 4.75 ± 0.63 pmol
Spezifische Aktivität (LCE [2]): 0.58 ± 0.08 pmol/mg/min
Inhibition (LCE [2]): 94%
Inhibierung der LCE-Aktivität (in words) (LCE [2]): totalen Hemmung
Inhibierung der LCE-Aktivität (in words) (LCE [2]; listed as Mn^2+): Inhibierung

— patent publication EP0791056B1, “LIPID-CLEAVAGE ENZYME COMPLEX” (priority 1994, dated 1996)
